Data: patent publication US9226916B2, “Pyrrolidine derivatives” (HOFFMANN-LA ROCHE INC., priority 2009, dated 2016)

These compounds were tested against T1, recombinant human NK3 receptor (Homo sapiens, UniProt P29371) (assay: [3H]SR142801 competition binding assay).
T1 construct: expressed in transfected cells; host or cells: HEK293 cells, transient expression; membranes
T1 sequence (P29371 1-465): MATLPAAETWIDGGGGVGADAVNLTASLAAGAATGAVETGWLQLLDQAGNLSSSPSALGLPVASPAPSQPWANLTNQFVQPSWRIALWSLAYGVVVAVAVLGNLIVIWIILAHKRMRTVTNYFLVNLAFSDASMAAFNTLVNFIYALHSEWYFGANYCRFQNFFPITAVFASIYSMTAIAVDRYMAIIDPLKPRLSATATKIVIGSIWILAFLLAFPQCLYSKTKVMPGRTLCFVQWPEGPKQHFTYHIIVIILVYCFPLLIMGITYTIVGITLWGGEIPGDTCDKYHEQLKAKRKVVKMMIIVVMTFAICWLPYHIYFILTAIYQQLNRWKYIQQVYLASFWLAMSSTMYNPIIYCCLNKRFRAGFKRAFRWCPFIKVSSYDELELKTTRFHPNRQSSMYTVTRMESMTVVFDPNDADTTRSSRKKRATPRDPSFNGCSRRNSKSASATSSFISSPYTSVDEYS
CN(C(=O)O[C@H]1C[C@H]2CC[C@@H]1C2)[C@H]1CN(C(=O)C2CCN(C(=O)C3(C)CC3)CC2)C[C@@H]1c1ccc(Cl)c(Cl)c1 (mixture of isomers) [Example 68, {(3R,4S)-4-(3,4-Dichloro-phenyl)-1-[1-(1-methyl-cyclopropanecarbonyl)-piperidine-4-carbonyl]-pyrrolidin-3-yl}-methyl-carbamic acid (1R,2S,4S)-bicyclo[2.2.1]hept-2-yl ester and {(3S,4R)-4-(3,4-Dichloro-phenyl)-1-[1-(1-methyl-cyclopropanecarbonyl)-piperidine-4-carbonyl]-pyrrolidin-3-yl}-methyl-carbamic acid (1R,2S,4S)-bicyclo[2.2.1]hept-2-yl ester] showed a Ki of 62.6 nM.
CN(C(=O)O[C@@H]1C[C@H]2CC[C@@H]1C2)[C@H]1CN(C(=O)C2CCN(C(=O)C3(C)CC3)CC2)C[C@@H]1c1ccc(Cl)c(Cl)c1 (mixture of isomers) [Example 69, {(3R,4S)-4-(3,4-Dichloro-phenyl)-1-[1-(1-methyl-cyclopropanecarbonyl)-piperidine-4-carbonyl]-pyrrolidin-3-yl}-methyl-carbamic acid (1R,2R,4S)-bicyclo[2.2.1]hept-2-yl ester and {(3S,4R)-4-(3,4-Dichloro-phenyl)-1-[1-(1-methyl-cyclopropanecarbonyl)-piperidine-4-carbonyl]-pyrrolidin-3-yl}-methyl-carbamic acid (1R,2R,4S)-bicyclo[2.2.1]hept-2-yl ester] gave a Ki of 7.6 nM.
CN(C(=O)Oc1ccc(F)cc1)[C@H]1CN(C(=O)C2CCN(C(=O)C3(C)CC3)CC2)C[C@@H]1c1ccc(Cl)c(Cl)c1 (racemic) [Example 2, rac-{(3R,4S)-4-(3,4-Dichloro-phenyl)-1-[1-(1-methyl-cyclopropanecarbonyl)-piperidine-4-carbonyl]-pyrrolidin-3-yl}-methyl-carbamic acid 4-fluoro-phenyl ester] was tested, and the Ki was 0.4 nM.
CN(C(=O)Oc1ccc(F)cc1)[C@H]1CN(C(=O)C2CCN(CC3CC3)CC2)C[C@@H]1c1ccc(Cl)c(Cl)c1 (racemic) [Example 4, rac-[(3R,4S)-1-(1-Cyclopropylmethyl-piperidine-4-carbonyl)-4-(3,4-dichloro-phenyl)-pyrrolidin-3-yl]-methyl-carbamic acid 4-fluoro-phenyl ester] was tested, and the Ki was 1.8 nM.
CN(C(=O)Oc1ccccc1)[C@H]1CN(C(=O)C2CCN(CC3CC3)CC2)C[C@@H]1c1ccc(Cl)c(Cl)c1 (racemic) [Example 7, rac-[(3R,4S)-1-(1-Cyclopropylmethyl-piperidine-4-carbonyl)-4-(3,4-dichloro-phenyl)-pyrrolidin-3-yl]-methyl-carbamic acid phenyl ester] gave a Ki of 9.6 nM.
Work on Cc1ccc(OC(=O)N(C)[C@H]2CN(C(=O)C3CCN(CC4CC4)CC3)C[C@@H]2c2ccc(Cl)c(Cl)c2)cc1 (racemic) [Example 8, rac-[(3R,4S)-1-(1-Cyclopropylmethyl-piperidine-4-carbonyl)-4-(3,4-dichloro-phenyl)-pyrrolidin-3-yl]-methyl-carbamic acid p-tolyl ester] yielded a Ki of 4 nM.
For COc1ccc(OC(=O)N(C)[C@H]2CN(C(=O)C3CCN(CC4CC4)CC3)C[C@@H]2c2ccc(Cl)c(Cl)c2)cc1 (racemic) [Example 9, rac-[(3R,4S)-1-(1-Cyclopropylmethyl-piperidine-4-carbonyl)-4-(3,4-dichloro-phenyl)-pyrrolidin-3-yl]-methyl-carbamic acid 4-methoxy-phenyl ester], the Ki was 13.6 nM.
Compound CN(C(=O)Oc1ccc(Cl)cc1)[C@H]1CN(C(=O)C2CCN(CC3CC3)CC2)C[C@@H]1c1ccc(Cl)c(Cl)c1 (racemic) [Example 10, rac-[(3R,4S)-1-(1-Cyclopropylmethyl-piperidine-4-carbonyl)-4-(3,4-dichloro-phenyl)-pyrrolidin-3-yl]-methyl-carbamic acid 4-chloro-phenyl ester] has a Ki of 1.5 nM.
